# According to patent US9492450B2, “Inhibition of dynamin related protein 1 to promote cell death” (University of Pittsburgh—of the Commonwealth System of …, priority 2011, dated 2016):
# Key:
# MDA-MB-231 cells = assay: MTS colorimetric survival assay; type: cell-based, human; settings: agent alone, 72 h, read-out: IC50, inhibition of growth / survival
# Description: FIG. 19A-E. Combination of cisplatin and mdivi-1 produces synergistic pro-apoptotic effect in multidrug resistant tumor cells. (A) MDA-MB-231 cells were treated with increasing doses of mdivi-1 for 72 h. The survival was assessed by MTS assay. […] (B) MDA-MB-231 cells were treated with increasing doses of cisplatin alone or the combination with 20 μM or 50 μM of mdivi-1 for 72 h. The survival was assessed by MTS assay. (C) MDA-MB-231 cells were exposed to cisplatin and mdivi-1 alone or combination at their IC50 or 0.5 fold of their IC50. The combination index (CI) and the normalized isobologram were generated using CompuSyn. […] The compounds were then washed out and the cell number was determined every 24 h by CyQuant assay. […] The number of apoptotic cells was determined with antibody recognizing cleaved caspase-3 followed by flow cytometry.
# Cell proliferation was determined using a CyQUANT Direct Cell Proliferation Assay kit (Invitrogen), the activity of caspase-3/7 was measured using a Caspase-Glo 3/7 Assay Systems (Promega, Madison, Wis.), and the MTS colorimetric survival assay was performed using the CellTiter 96 AQueous One Solution Cell Proliferation Assay kit (Promega, Madison, Wis.), according to the manufacturer's instructions. The survival fractions were calculated after setting untreated control cells at 100%. […]
# [1] = system: Drp1 wild-type (WT) and knockout (KO) SV40-transformed MEF cells; assay: Drp1 wild-type and knockout MEF cells: cleaved caspase-3, CyQuant, OCR; type: cell-based, mouse
# Description: FIG. 21A-F. Mdivi-1 enhances cisplatin sensitivity through Drp1-independent mechanisms. (A) Confirmation of the depletion of Drp1 in Drp1 knockout SV40-transformed MEF cells by western blot. (B) Drp1 wild-type (Drp1+/+) and knockout (Drp1−/−) MEF cells were treated as indicated for 20 h, and the number of apoptotic cells was determined by antibody recognizing cleaved caspase-3. […] (C) Drp1 wild-type and knockout MEF cells were treated with mdivi-1 for 24 h, and the cell number were determined by CyQuant assay. (D) OCR was measured after 1 h treatment of Drp1 wild-type and knockout MEF cells with DMSO or mdivi-1. (E) The combination effect of cisplatin with four analogs of mdivi-1. […]
# Cell proliferation was determined using a CyQUANT Direct Cell Proliferation Assay kit (Invitrogen), the activity of caspase-3/7 was measured using a Caspase-Glo 3/7 Assay Systems (Promega, Madison, Wis.), and the MTS colorimetric survival assay was performed using the CellTiter 96 AQueous One Solution Cell Proliferation Assay kit (Promega, Madison, Wis.), according to the manufacturer's instructions. The survival fractions were calculated after setting untreated control cells at 100%. […] The cytotoxic interactions between the two drugs was determined using the method of Chou and Talalay. The combination index (CI) was determined using a computer program CompuSyn. […]
# [2] = target: T1, Dnm1, the yeast ortholog of Drp1 (Saccharomyces cerevisiae, UniProt P54861); settings: US2005/0038051 and US2008/0287473; cited from earlier work
# T1 sequence (P54861 1-757): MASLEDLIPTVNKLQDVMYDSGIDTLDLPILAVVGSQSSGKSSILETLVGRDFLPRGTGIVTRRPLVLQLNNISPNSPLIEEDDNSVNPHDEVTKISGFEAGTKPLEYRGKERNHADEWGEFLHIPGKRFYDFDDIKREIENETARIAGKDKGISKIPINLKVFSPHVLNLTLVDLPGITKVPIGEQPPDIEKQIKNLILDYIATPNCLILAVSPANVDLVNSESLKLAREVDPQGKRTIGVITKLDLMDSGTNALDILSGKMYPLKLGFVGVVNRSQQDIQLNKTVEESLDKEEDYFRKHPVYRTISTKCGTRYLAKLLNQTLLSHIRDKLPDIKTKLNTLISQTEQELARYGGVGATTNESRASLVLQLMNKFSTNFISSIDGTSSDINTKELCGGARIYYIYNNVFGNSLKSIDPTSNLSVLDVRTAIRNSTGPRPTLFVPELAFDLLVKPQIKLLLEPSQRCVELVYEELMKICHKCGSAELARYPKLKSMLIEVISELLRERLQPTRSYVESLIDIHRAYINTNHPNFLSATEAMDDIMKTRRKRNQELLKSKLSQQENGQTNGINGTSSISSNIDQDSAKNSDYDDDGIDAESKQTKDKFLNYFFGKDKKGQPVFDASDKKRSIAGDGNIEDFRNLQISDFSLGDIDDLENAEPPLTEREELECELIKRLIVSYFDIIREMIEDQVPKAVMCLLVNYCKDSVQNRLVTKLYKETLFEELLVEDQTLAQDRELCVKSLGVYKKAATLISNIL
smiles,measurement,setting,value
COc1cc(-n2c(=S)[nH]c3ccccc3c2=O)c(Cl)cc1Cl [mdivi-1],IC50,MDA-MB-231 cells,55.9 ± 1.92 µM
same,mitochondrial respiration (OCR) in Drp1 WT and KO cells,[1]; 1 h treatment,inhibition
same,cell proliferation (CyQuant) in Drp1 WT and KO cells,[1]; 24 h,inhibition of cell proliferation
same,inhibition of Dnm1,[2],selective inhibitor
